Patent US6716411B2, “Method for finding nucleotide synthesis inhibitors having fewer side effects” (Aventis Pharma Deustschland GmbH, priority 1999, dated 2004)

System: pemphigus vulgaris
Experiment: Observation of leflunomide treatment in humans
Assay type: in vivo
Settings: one patient
Method: This diarrhea adversely affected the quality of life of the patient. Because of the problems caused by this side effect, an attempt was made, after more than two years' therapy with a constant dose of 20 mg of leflunomide per day, to end the therapy.
This observation was surprising, as the active metabolite of leflunomide, compound 1, has a half-life of approximately 14 days in humans. Furthermore, in this patient the blood levels of the active metabolite of leflunomide were repeatedly determined in the relatively high range between 70 mg/l and 85 mg/l.

With Cc1oncc1C(=O)Nc1ccc(C(F)(F)F)cc1 [leflunomide, N-(4-trifluoromethylphenyl)-5-methylisoxazole-4-carboxamide] the “side effect of treatment” value (20 mg of leflunomide per day) was “permanent diarrhea”, the “symptoms of pemphigus vulgaris under therapy” value (20 mg of leflunomide per day) was “completely disappeared” and the “pemphigus vulgaris four days following discontinuation” value (after more than two years' therapy) was “occurred again severely”.
